Experimental data taken from US7232906B2, “Substituted pyrrolines as kinase inhibitors” (Janssen Pharmaceutica N.V., priority 2002, dated 2007).
pIC50: −log10 of the molar value.

Columns and labels:
Assay type in all cases: biochemical
[1] = molecular target: recombinant rabbit GSK-3β (Oryctolagus cuniculus, UniProt G1T8E2); assay: Glycogen Synthase Kinase-3 assay; parameters: GSK-3β Assay Activity, % @ 200 nM: scale not given here; conditions: PPI-2 substrate; for pIC50: 33P-ATP, 90 minutes at 30° C.
Sequence of recombinant rabbit GSK-3β (G1T8E2 1-432): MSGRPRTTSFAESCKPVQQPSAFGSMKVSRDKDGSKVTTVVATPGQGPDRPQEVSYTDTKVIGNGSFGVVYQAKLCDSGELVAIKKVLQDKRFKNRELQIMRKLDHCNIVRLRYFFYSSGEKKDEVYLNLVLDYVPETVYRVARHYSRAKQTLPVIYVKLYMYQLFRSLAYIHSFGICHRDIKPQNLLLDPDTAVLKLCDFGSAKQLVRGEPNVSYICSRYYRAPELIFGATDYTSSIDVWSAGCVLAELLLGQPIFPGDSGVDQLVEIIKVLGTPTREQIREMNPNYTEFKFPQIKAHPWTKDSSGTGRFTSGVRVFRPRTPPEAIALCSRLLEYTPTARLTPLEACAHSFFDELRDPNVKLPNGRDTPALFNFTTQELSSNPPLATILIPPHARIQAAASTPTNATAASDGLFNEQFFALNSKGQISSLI
Procedure: Compounds were tested for the ability to inhibit recombinant rabbit GSK-3β using the following protocol. The test compound was added to a reaction mixture containing Protein phosphatase inhibitor-2 (PPI-2) (Calbiochem) (45 ng), rabbit GSK-3β (New England Biolabs) (0.75 units) and ^33P-ATP (1 μCi) in 50 mM Tris-HCl (pH 8.0), 10 mM MgCl2, 0.1% BSA, 1 mM DTT and 100 μM Sodium Vanadate. The mixture was reacted for 90 minutes at 30° C. to allow phosphorylation of the PPI-2 protein and then the protein in the reaction was precipitated using 10% TCA. The precipitated protein was collected on filter plates (MultiScreen-DV/Millipore), which were subsequently washed. Finally, the radioactivity was quantified using a TopCount Scintillation Counter (Packard). […] Staurosporine or Valproate, known inhibitors of GSK-3β, were used as a positive control for screening.

PKC γ = PKC γ (Homo sapiens, UniProt P05129); assay: Protein Kinase C histone-based assay, γ isoform; parameters: PKC Activity Gamma, % @ 10 μM (Histone Based Assay): scale not given here; conditions: histone III substrate; for pIC50: 30 μM ATP, approximately ± 30 percent margin of error, read-out: PKC Activity Gamma (IC50, Histone Based Assay)
Procedure: (§1) Compounds were evaluated for PKC selectivity using histone III as the substrate. The PKC isoforms α, β-II or γ were added to a reaction mixture that contained 20 mM HEPES, (pH 7.4), 940 μM CaCl2, 10 mM MgCl2, 1 mM EGTA. 100 μg/mL phosphatidylserine, 20 μg/mL diacylglycerol, 30 μM ATP, 1 μCi (^33P)ATP and 200 μg/mL histone III. The reaction was incubated for 10 min at 30° C. Reactions were terminated by TCA precipitation and spotting on Whatman P81 filters. Filters were washed in 75 mM phosphoric acid and the radioactivity quantified by liquid scintillation counting.

PKC β-II = PKC β-II (Homo sapiens, UniProt P05771); assay: Protein Kinase C histone-based assay, β-II isoform; parameters: PKC Activity Beta II, % @ 1 μM (Histone Based Assay): scale not given here; conditions: histone III substrate; for pIC50: 30 μM ATP, approximately ± 30 percent margin of error, read-out: PKC Activity Beta II (IC50, Histone Based Assay)
Sequence of PKC β-II (P05771 1-673 isoform P05771-2): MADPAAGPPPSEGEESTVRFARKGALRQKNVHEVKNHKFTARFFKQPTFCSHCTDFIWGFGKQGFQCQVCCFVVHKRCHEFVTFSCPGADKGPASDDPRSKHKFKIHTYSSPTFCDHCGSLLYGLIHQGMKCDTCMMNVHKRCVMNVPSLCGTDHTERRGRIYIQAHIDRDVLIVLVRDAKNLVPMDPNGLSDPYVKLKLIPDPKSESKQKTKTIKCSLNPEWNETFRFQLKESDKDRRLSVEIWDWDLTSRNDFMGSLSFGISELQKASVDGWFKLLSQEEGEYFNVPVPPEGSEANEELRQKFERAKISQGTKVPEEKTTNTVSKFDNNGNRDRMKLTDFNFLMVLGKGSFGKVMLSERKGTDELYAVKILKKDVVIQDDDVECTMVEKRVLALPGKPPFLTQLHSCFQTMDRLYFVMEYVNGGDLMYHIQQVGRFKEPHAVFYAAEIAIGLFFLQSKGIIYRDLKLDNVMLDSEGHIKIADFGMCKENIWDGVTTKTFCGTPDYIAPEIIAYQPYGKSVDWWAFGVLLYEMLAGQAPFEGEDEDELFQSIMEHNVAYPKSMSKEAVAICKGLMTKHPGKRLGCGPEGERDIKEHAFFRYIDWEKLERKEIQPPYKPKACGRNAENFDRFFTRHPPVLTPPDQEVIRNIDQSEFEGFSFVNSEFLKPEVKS
Procedure: as §1

PKC α = PKC α (Homo sapiens, UniProt P17252); assay: Protein Kinase C histone-based assay, α isoform; parameters: PKC Activity Alpha, % @ 10 μM (Histone Based Assay): scale not given here; conditions: histone III substrate; for pIC50: 30 μM ATP, approximately ± 30 percent margin of error, read-out: PKC Activity Alpha (IC50, Histone Based Assay)
Procedure: as §1

Compound | GSK-3β Assay Activity, % @ 200 nM [1] | pIC50 (PKC β-II) | pIC50 (PKC α) | pIC50 [1] | also measured
COc1ccccc1C1=C(c2cn(C3CCOCC3)c3ccccc23)C(=O)NC1=O [Cpd 55, 3-(2-Methoxyphenyl)-4-[1-(tetrahydropyran-4-yl)-1H-indol-3-yl]-1H-pyrrole-2,5-dione] |  | 6.97 | 6.39 | 7.60 | pIC50 (PKC γ): 6.55
COC(=O)c1cncc(-n2cc(C3=C(c4ccccc4OC)C(=O)NC3=O)c3cc(Cl)ccc32)c1 [Cpd 57, 5-{5-Chloro-3-[4-(2-methoxyphenyl)-2,5-dioxo-2,5-dihydro-1H-pyrrol-3-yl]-indol-1-yl}-nicotinic acid methyl ester] |  |  |  | 7.40 | 
O=C1NC(=O)C(c2cn(CCN3CCSC3)c3ccccc23)=C1c1csc2ccc(Cl)cc12 [Cpd 46, 3-(5-chlorobenzo[b]thien-3-yl)-4-[1-[2-(3-thiazolidinyl)ethyl]-1H-indol-3-yl]-1H-pyrrole-2,5-dione] | 45% @ 200 nM |  |  |  | 
3-(2-bromo-5-[3-(dimethylamino)propyl]phenyl]-4-(1-phenyl-1H-indol-3-yl)-1H-pyrrole-2,5-dione [Cpd 25] |  |  |  | 6.96 | 
COc1ccccc1C1=C(c2cn(-c3cncc(C(=O)O)c3)c3ccc(Cl)cc23)C(=O)NC1=O [Cpd 56, 5-{5-Chloro-3-[4-(2-methoxyphenyl)-2,5-dioxo-2,5-dihydro-1H-pyrrol-3-yl]-indol-1-yl}-nicotinic acid] |  | 7.38 | 6.23 | 7.29 | pIC50 (PKC γ): 6.08
3-[1-[3-(3-butynylmethylamino)propyl]-1H-indol-3-yl]-4-(3-iodophenyl)-1H-pyrrole-2,5-dione [Cpd 23] | 67% @ 200 nM |  |  |  | 
COc1ccccc1C1=C(c2cn(-c3cncc(C(N)=O)c3)c3ccc(Cl)cc23)C(=O)NC1=O [Cpd 58, 5-{5-Chloro-3-[4-(2-methoxyphenyl)-2,5-dioxo-2,5-dihydro-1H-pyrrol-3-yl]-indol-1-yl}-nicotinamide] |  | 7.49 | 6.09 | 7.74 | pIC50 (PKC γ): 5.90
3-(3-bromophenyl)-4-[1-[3-(3-butynylmethylamino)propyl]-1H-indol-3-yl]-1H-pyrrole-2,5-dione [Cpd 22] | 62% @ 200 nM |  |  |  | 
COc1ccccc1C1=C(c2cn(-c3cncnc3)c3ccccc23)C(=O)NC1=O [Cpd 26, 3-(2-methoxyphenyl)-4-[1-(5-pyrimidinyl)-1H-indol-3-yl]-1H-pyrrole-2,5-dione] |  | 6.22 | 5.68 | 8.10 | PKC Activity Gamma, % @ 10 μM (Histone Based Assay) (PKC γ): 29% @ 10 μM

Now from value to compound, other results behind:

GSK-3β Assay Activity, % @ 200 nM [1] | pIC50 (PKC β-II) | pIC50 (PKC α) | pIC50 [1] | Compound | also measured
81% @ 200 nM |  |  |  | CN(CCO)CCn1cc(C2=C(c3csc4ccc(Cl)cc34)C(=O)NC2=O)c2ccccc21 [Cpd 41, 3-(5-chlorobenzo[b]thien-3-yl)-4-(1-[2-[(2-hydroxyethyl)methylamino]ethyl]-1H-indol-3-yl]-1H-pyrrole-2,5-dione] | 
 | 7.29 | 6.93 |  | CN(C)CC(O)COc1ccccc1C1=C(c2cn(CCO)c3ccccc23)C(=O)NC1=O (stereo not shown) [Cpd 21, 3-[2-[3-(dimethylamino)-2-hydroxypropoxy]phenyl]-4-[1-(2-hydroxyethyl)-1H-indol-3-yl]-1H-pyrrole-2,5-dione] | pIC50 (PKC γ): 6.32
 |  |  | 7.02 | O=C1NC(=O)C(c2cn(-c3cccnc3)c3ccccc23)=C1c1ccc(O)cc1 [Cpd 29, 3-(4-hydroxyphenyl)-4-[1-(3-pyridinyl)-1H-indol-3-yl]-1H-pyrrole-2,5-dione] | 
64% @ 200 nM |  |  |  | CN(C)CCCn1cc(C2=C(c3cccc4ccccc34)C(=O)NC2=O)c2ccccc21 [Cpd 12, 3-[1-[3-(dimethylamino)propyl]-1H-indol-3-yl]-4-(1-naphthalenyl)-1H-pyrrole-2,5-dione] | 
 |  |  | 6.41 | CCOC(Cn1cc(C2=C(c3ccccc3OC)C(=O)NC2=O)c2ccccc21)OCC [Cpd 7, 3-[1-(2,2-diethoxyethyl)-1H-indol-3-yl]-4-(2-methoxy-phenyl)-1H-pyrrole-2,5-dione] | PKC Activity Gamma, % @ 10 μM (Histone Based Assay) (PKC γ): 54% @ 10 μM; PKC Activity Beta II, % @ 1 μM (Histone Based Assay) (PKC β-II): 68% @ 1 μM; PKC Activity Alpha, % @ 10 μM (Histone Based Assay) (PKC α): 39% @ 10 μM
 | 7.09 | 7.08 |  | CN(C)CCCn1cc(C2=C(c3csc4ccc(Cl)cc34)C(=O)NC2=O)c2ccccc21 [Cpd 31, 3-(5-chlorobenzo[b]thien-3-yl)-4-[1-[3-(dimethylamino)propyl]-1H-indol-3-yl]-1H-pyrrole-2,5-dione] | 
 |  |  | 7.41 | COc1ccccc1C1=C(c2cn(CC=O)c3ccccc23)C(=O)NC1=O [Cpd 8, 3-[2,5-dihydro-4-(2-methoxyphenyl)-2,5-dioxo-1H-pyrrol-3-yl]-1H-indole-1-acetaldehyde] | 
72% @ 200 nM |  |  |  | C=Cn1cc(C2=C(c3cccc(OCC(O)CN(C)C)c3)C(=O)NC2=O)c2ccccc21 (stereo not shown) [Cpd 2, 3-[3-[3-(dimethylamino)-2-hydroxypropoxy]phenyl]-4-(1-ethenyl-1H-indol-3-yl)-1H-pyrrole-2,5-dione] | 
 |  |  | 7.17 | O=C1NC(=O)C(c2cn(-c3cccnc3)c3ccccc23)=C1c1ccccc1O [Cpd 28, 3-(2-hydroxyphenyl)-4-[1-(3-pyridinyl)-1H-indol-3-yl]-1H-pyrrole-2,5-dione] | 
 | 6.28 |  | 7.59 | COc1ccccc1C1=C(c2cn(-c3cccnc3)c3ccccc23)C(=O)NC1=O [Cpd 27, 3-(2-methoxyphenyl)-4-[1-(3-pyridinyl)-1H-indol-3-yl]-1H-pyrrole-2,5-dione] | PKC Activity Alpha, % @ 10 μM (Histone Based Assay) (PKC α): 66% @ 10 μM
 |  |  | 7.57 | COc1ccccc1C1=C(c2cn(CCN(C)CCO)c3ccccc23)C(=O)NC1=O [Cpd 9, 3-[1-[2-[(2-hydroxyethyl)methylamino]ethyl]-1H-indol-3-yl]-4-(2-methoxyphenyl)-1H-pyrrole-2,5-dione] | PKC Activity Gamma, % @ 10 μM (Histone Based Assay) (PKC γ): 15% @ 10 μM; PKC Activity Beta II, % @ 1 μM (Histone Based Assay) (PKC β-II): 40% @ 1 μM; PKC Activity Alpha, % @ 10 μM (Histone Based Assay) (PKC α): 27% @ 10 μM
